From the supplement of paper PMC10307832

Legend:
BAM7 + Foretinib = compound: CCOC1=CC=CC=C1N=NC2=C(NN(C2=O)C3=NC(=CS3)C4=CC=CC=C4)C [BAM7] + COc1cc2c(Oc3ccc(NC(=O)C4(C(=O)Nc5ccc(F)cc5)CC4)cc3F)ccnc2cc1OCCCN1CCOCC1 [Foretinib] (partner 0.25 µM); assay: relative viability (nuclei count vs DMSO), 5 days (fraction); higher = more cells survive
Summary of the method: (§1)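 Cells from lung cancer lines were seeded into 1536-well plates and, one day later, dosed by pin tool. Treatments were either a single drug or a fixed dose of an anchor drug with five library-drug doses (not always all listed) in √10 steps. After 5 days, nuclei were stained in a one-step fixation (final 0.05% Triton X-100, 1% formaldehyde, 1 ug/ml Hoechst) and counted on 4× images, and relative viability is the treated-to-vehicle nuclei ratio, as the median of duplicate plates.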

[1] = compound: CCn1c(-c2nonc2N)nc2c(C#CC(C)(C)O)ncc(OC[C@H]3CCCNC3)c21 + Cc1cc(Nc2cc(N3CCN(C)CC3)nc(Sc3ccc(NC(=O)C4CC4)cc3)n2)n[nH]1 [Tozasertib] (partner 0.1 µM); assay: as above
Summary of the method: as §1

Cell Line: NCI-H1437
- relative viability (BAM7 + Foretinib; first compound 0.5 µM): 1.31
- relative viability (BAM7 + Foretinib; first compound 5 µM): 1.2
- relative viability (BAM7 + Foretinib; first compound 15.81 µM): 1.21
- relative viability (BAM7 + Foretinib; first compound 50 µM): 1.2
- relative viability ([1]; first compound 0.01 µM): 0.38
- relative viability ([1]; first compound 0.03162 µM): 0.461
- relative viability ([1]; first compound 0.1 µM): 0.422
- relative viability ([1]; first compound 0.3162 µM): 0.39
- relative viability ([1]; first compound 1 µM): 0.432

Cell Line: NCI-H2342
- relative viability (BAM7 + Foretinib; first compound 0.5 µM): 1.01
- relative viability (BAM7 + Foretinib; first compound 5 µM): 1.04
- relative viability (BAM7 + Foretinib; first compound 15.81 µM): 0.921
- relative viability (BAM7 + Foretinib; first compound 50 µM): 1.03
- relative viability ([1]; first compound 0.01 µM): 0.521
- relative viability ([1]; first compound 0.03162 µM): 0.588
- relative viability ([1]; first compound 0.1 µM): 0.466
- relative viability ([1]; first compound 0.3162 µM): 0.572
- relative viability ([1]; first compound 1 µM): 0.612

Cell Line: LU99A
- relative viability (BAM7 + Foretinib; first compound 0.5 µM): 0.787
- relative viability (BAM7 + Foretinib; first compound 5 µM): 0.888
- relative viability (BAM7 + Foretinib; first compound 15.81 µM): 0.828
- relative viability (BAM7 + Foretinib; first compound 50 µM): 0.843
- relative viability ([1]; first compound 0.01 µM): 0.296
- relative viability ([1]; first compound 0.03162 µM): 0.268
- relative viability ([1]; first compound 0.1 µM): 0.296
- relative viability ([1]; first compound 0.3162 µM): 0.308
- relative viability ([1]; first compound 1 µM): 0.315

Cell Line: SW 900
- relative viability (BAM7 + Foretinib; first compound 0.5 µM): 0.933
- relative viability (BAM7 + Foretinib; first compound 5 µM): 0.755
- relative viability (BAM7 + Foretinib; first compound 15.81 µM): 0.774
- relative viability (BAM7 + Foretinib; first compound 50 µM): 0.863
- relative viability ([1]; first compound 0.01 µM): 0.626
- relative viability ([1]; first compound 0.03162 µM): 0.747
- relative viability ([1]; first compound 0.1 µM): 0.646
- relative viability ([1]; first compound 0.3162 µM): 0.561
- relative viability ([1]; first compound 1 µM): 0.579

Cell Line: HCC-827
- relative viability (BAM7 + Foretinib; first compound 0.5 µM): 0.967
- relative viability (BAM7 + Foretinib; first compound 5 µM): 1.05
- relative viability (BAM7 + Foretinib; first compound 15.81 µM): 1.03
- relative viability (BAM7 + Foretinib; first compound 50 µM): 0.998
- relative viability ([1]; first compound 0.01 µM): 0.391
- relative viability ([1]; first compound 0.03162 µM): 0.47
- relative viability ([1]; first compound 0.1 µM): 0.383
- relative viability ([1]; first compound 0.3162 µM): 0.449
- relative viability ([1]; first compound 1 µM): 0.43

Cell Line: LK-2
- relative viability (BAM7 + Foretinib; first compound 0.5 µM): 1.15
- relative viability (BAM7 + Foretinib; first compound 5 µM): 1.23
- relative viability (BAM7 + Foretinib; first compound 15.81 µM): 1.18
- relative viability (BAM7 + Foretinib; first compound 50 µM): 1.29
- relative viability ([1]; first compound 0.01 µM): 0.165
- relative viability ([1]; first compound 0.03162 µM): 0.171
- relative viability ([1]; first compound 1 µM): 0.184

Cell Line: HCC-366
- relative viability (BAM7 + Foretinib; first compound 0.5 µM): 0.92
- relative viability (BAM7 + Foretinib; first compound 5 µM): 0.849
- relative viability (BAM7 + Foretinib; first compound 15.81 µM): 0.94
- relative viability (BAM7 + Foretinib; first compound 50 µM): 0.836
- relative viability ([1]; first compound 0.01 µM): 0.135
- relative viability ([1]; first compound 0.03162 µM): 0.12
- relative viability ([1]; first compound 0.1 µM): 0.194
- relative viability ([1]; first compound 0.3162 µM): 0.111
- relative viability ([1]; first compound 1 µM): 0.129

Cell Line: BEN
- relative viability (BAM7 + Foretinib; first compound 0.5 µM): 0.694
- relative viability (BAM7 + Foretinib; first compound 5 µM): 0.639
- relative viability (BAM7 + Foretinib; first compound 15.81 µM): 0.634
- relative viability (BAM7 + Foretinib; first compound 50 µM): 0.618
- relative viability ([1]; first compound 0.01 µM): 0.588
- relative viability ([1]; first compound 0.03162 µM): 0.481
- relative viability ([1]; first compound 0.1 µM): 0.476
- relative viability ([1]; first compound 0.3162 µM): 0.53
- relative viability ([1]; first compound 1 µM): 0.515

Cell Line: NCI-H23
- relative viability (BAM7 + Foretinib; first compound 0.5 µM): 1.05
- relative viability (BAM7 + Foretinib; first compound 5 µM): 1.03
- relative viability (BAM7 + Foretinib; first compound 15.81 µM): 0.928
- relative viability (BAM7 + Foretinib; first compound 50 µM): 1.1
- relative viability ([1]; first compound 0.01 µM): 0.398
- relative viability ([1]; first compound 0.03162 µM): 0.438
- relative viability ([1]; first compound 0.1 µM): 0.568
- relative viability ([1]; first compound 0.3162 µM): 0.384
- relative viability ([1]; first compound 1 µM): 0.432

Cell Line: NCI-H1395
- relative viability (BAM7 + Foretinib; first compound 0.5 µM): 1.01
- relative viability (BAM7 + Foretinib; first compound 5 µM): 1.09
- relative viability (BAM7 + Foretinib; first compound 15.81 µM): 1.01
- relative viability (BAM7 + Foretinib; first compound 50 µM): 1.05
- relative viability ([1]; first compound 0.01 µM): 0.776
- relative viability ([1]; first compound 0.03162 µM): 0.763
- relative viability ([1]; first compound 0.1 µM): 0.736
- relative viability ([1]; first compound 0.3162 µM): 0.651
- relative viability ([1]; first compound 1 µM): 0.659

Cell Line: A549
- relative viability (BAM7 + Foretinib; first compound 0.5 µM): 1
- relative viability (BAM7 + Foretinib; first compound 5 µM): 1.1
- relative viability (BAM7 + Foretinib; first compound 15.81 µM): 0.93
- relative viability (BAM7 + Foretinib; first compound 50 µM): 0.989

Cell Line: 201T
- relative viability (BAM7 + Foretinib; first compound 0.5 µM): 0.789
- relative viability (BAM7 + Foretinib; first compound 5 µM): 0.948
- relative viability (BAM7 + Foretinib; first compound 15.81 µM): 0.832
- relative viability (BAM7 + Foretinib; first compound 50 µM): 0.823
- relative viability ([1]; first compound 0.01 µM): 0.954
- relative viability ([1]; first compound 0.03162 µM): 0.948
- relative viability ([1]; first compound 0.1 µM): 0.914
- relative viability ([1]; first compound 0.3162 µM): 0.933
- relative viability ([1]; first compound 1 µM): 0.963

Cell Line: NCI-H2170
- relative viability (BAM7 + Foretinib; first compound 0.5 µM): 0.973
- relative viability (BAM7 + Foretinib; first compound 5 µM): 0.994
- relative viability (BAM7 + Foretinib; first compound 15.81 µM): 0.91
- relative viability (BAM7 + Foretinib; first compound 50 µM): 1
- relative viability ([1]; first compound 0.01 µM): 0.769
- relative viability ([1]; first compound 0.03162 µM): 0.755
- relative viability ([1]; first compound 0.1 µM): 0.778
- relative viability ([1]; first compound 0.3162 µM): 0.705
- relative viability ([1]; first compound 1 µM): 0.733

Cell Line: NCI-H460
- relative viability (BAM7 + Foretinib; first compound 0.5 µM): 0.926
- relative viability (BAM7 + Foretinib; first compound 5 µM): 0.982
- relative viability (BAM7 + Foretinib; first compound 15.81 µM): 0.878
- relative viability (BAM7 + Foretinib; first compound 50 µM): 0.969
- relative viability ([1]; first compound 0.01 µM): 0.533
- relative viability ([1]; first compound 0.03162 µM): 0.542
- relative viability ([1]; first compound 0.1 µM): 0.447
- relative viability ([1]; first compound 0.3162 µM): 0.461
- relative viability ([1]; first compound 1 µM): 0.532

Cell Line: NCI-H661
- relative viability (BAM7 + Foretinib; first compound 0.5 µM): 1.02
- relative viability (BAM7 + Foretinib; first compound 5 µM): 1.08
- relative viability (BAM7 + Foretinib; first compound 15.81 µM): 0.964
- relative viability (BAM7 + Foretinib; first compound 50 µM): 1.11
- relative viability ([1]; first compound 0.01 µM): 0.362
- relative viability ([1]; first compound 0.03162 µM): 0.343
- relative viability ([1]; first compound 0.1 µM): 0.354
- relative viability ([1]; first compound 0.3162 µM): 0.364
- relative viability ([1]; first compound 1 µM): 0.382

Cell Line: HCC-15
- relative viability (BAM7 + Foretinib; first compound 0.5 µM): 1
- relative viability (BAM7 + Foretinib; first compound 5 µM): 1.04
- relative viability (BAM7 + Foretinib; first compound 15.81 µM): 0.982
- relative viability (BAM7 + Foretinib; first compound 50 µM): 1
- relative viability ([1]; first compound 0.01 µM): 0.393
- relative viability ([1]; first compound 0.03162 µM): 0.439
- relative viability ([1]; first compound 0.1 µM): 0.338
- relative viability ([1]; first compound 0.3162 µM): 0.427
- relative viability ([1]; first compound 1 µM): 0.384

Cell Line: NCI-H1563
- relative viability (BAM7 + Foretinib; first compound 0.5 µM): 0.898
- relative viability (BAM7 + Foretinib; first compound 5 µM): 0.82
- relative viability (BAM7 + Foretinib; first compound 15.81 µM): 0.868
- relative viability (BAM7 + Foretinib; first compound 50 µM): 0.963

Cell Line: ABC-1
- relative viability (BAM7 + Foretinib; first compound 0.5 µM): 1.05
- relative viability (BAM7 + Foretinib; first compound 5 µM): 1.17
- relative viability (BAM7 + Foretinib; first compound 15.81 µM): 0.95
- relative viability (BAM7 + Foretinib; first compound 50 µM): 1.19
- relative viability ([1]; first compound 0.01 µM): 0.167
- relative viability ([1]; first compound 0.03162 µM): 0.169
- relative viability ([1]; first compound 0.1 µM): 0.176
- relative viability ([1]; first compound 0.3162 µM): 0.151
- relative viability ([1]; first compound 1 µM): 0.154

Cell Line: LCLC-103H
- relative viability (BAM7 + Foretinib; first compound 0.5 µM): 0.693
- relative viability (BAM7 + Foretinib; first compound 5 µM): 0.741
- relative viability (BAM7 + Foretinib; first compound 15.81 µM): 0.739
- relative viability (BAM7 + Foretinib; first compound 50 µM): 0.777
- relative viability ([1]; first compound 0.01 µM): 0.41
- relative viability ([1]; first compound 0.03162 µM): 0.555
- relative viability ([1]; first compound 0.1 µM): 0.432
- relative viability ([1]; first compound 0.3162 µM): 0.472
- relative viability ([1]; first compound 1 µM): 0.453
